Reference: ChEMBL document CHEMBL6087483 (J Med Chem, 2025)
Each block holds one compound with its values, some of them ahead of it. The source made the active and inactive calls. The calls are words filed in the database; no cut-off is given here.

What was measured:
[1] = Selectivity ratio of IC50 for antiproliferative activity against MTAP wild type human HCT-116 cells to IC50 for antiproliferative activity against MTAP deleted human HCT-116 cells; type: functional
HCT-116 [2] = experiment: Antiproliferative activity against MTAP deleted human HCT-116 cells assessed as inhibition of cell viability by luminescence based cell titer-glo assay; type: functional
HCT-116 [3] = experiment: Antiproliferative activity against MTAP wild type human HCT-116 cells assessed as inhibition of cell viability by luminescence based cell titer-glo assay; type: functional
[4] = Cmax in male CD-1 mouse at 5 mg/kg, po or 1 mg/kg, iv measured upto 24 hrs; type: ADME, organism-based; conditions: in vivo
[5] = AUC (0 to 24 hrs) in male CD-1 mouse at 5 mg/kg, po or 1 mg/kg, iv measured upto 24 hrs; type: ADME, organism-based; conditions: in vivo
[6] = Oral bioavailability in male CD-1 mouse at 5 mg/kg or 1 mg/kg, iv measured upto 24 hrs; type: ADME, organism-based; conditions: in vivo
[7] = Volume of distribution at steady state in male Sprague-Dawley rat at 5 mg/kg, po or 1 mg/kg, iv measured upto 24 hrs; type: ADME, organism-based; conditions: in vivo
[8] = Cmax in male Sprague-Dawley rat at 5 mg/kg, po or 1 mg/kg, iv measured upto 24 hrs; type: ADME, organism-based; conditions: in vivo
[9] = AUC (0 to 24 hrs) in male Sprague-Dawley rat at 5 mg/kg, po or 1 mg/kg, iv measured upto 24 hrs; type: ADME, organism-based; conditions: in vivo
[10] = Oral bioavailability in male Sprague-Dawley rat at 5 mg/kg or 1 mg/kg, iv measured upto 24 hrs; type: ADME, organism-based; conditions: in vivo
[11] = Volume of distribution at steady state in male Beagle dog at 3 mg/kg, po or 1 mg/kg, iv measured upto 24 hrs; type: ADME, organism-based, Canis lupus familiaris; conditions: in vivo
[12] = Cmax in male Beagle dog at 3 mg/kg, po or 1 mg/kg, iv measured upto 24 hrs; type: ADME, organism-based, Canis lupus familiaris; conditions: in vivo
[13] = AUC (0 to 24 hrs) in male Beagle dog at 3 mg/kg, po or 1 mg/kg, iv measured upto 24 hrs; type: ADME, organism-based, Canis lupus familiaris; conditions: in vivo
[14] = Oral bioavailability in male Beagle dog at 3 mg/kg or 1 mg/kg, iv measured upto 24 hrs; type: ADME, organism-based, Canis lupus familiaris; conditions: in vivo
[15] = target: T1, Protein arginine N-methyltransferase 5 (Homo sapiens, UniProt O14744); experiment: Inhibition of PRMT5 (unknown origin) in presence of MTA
T1 sequence (O14744 whole entry): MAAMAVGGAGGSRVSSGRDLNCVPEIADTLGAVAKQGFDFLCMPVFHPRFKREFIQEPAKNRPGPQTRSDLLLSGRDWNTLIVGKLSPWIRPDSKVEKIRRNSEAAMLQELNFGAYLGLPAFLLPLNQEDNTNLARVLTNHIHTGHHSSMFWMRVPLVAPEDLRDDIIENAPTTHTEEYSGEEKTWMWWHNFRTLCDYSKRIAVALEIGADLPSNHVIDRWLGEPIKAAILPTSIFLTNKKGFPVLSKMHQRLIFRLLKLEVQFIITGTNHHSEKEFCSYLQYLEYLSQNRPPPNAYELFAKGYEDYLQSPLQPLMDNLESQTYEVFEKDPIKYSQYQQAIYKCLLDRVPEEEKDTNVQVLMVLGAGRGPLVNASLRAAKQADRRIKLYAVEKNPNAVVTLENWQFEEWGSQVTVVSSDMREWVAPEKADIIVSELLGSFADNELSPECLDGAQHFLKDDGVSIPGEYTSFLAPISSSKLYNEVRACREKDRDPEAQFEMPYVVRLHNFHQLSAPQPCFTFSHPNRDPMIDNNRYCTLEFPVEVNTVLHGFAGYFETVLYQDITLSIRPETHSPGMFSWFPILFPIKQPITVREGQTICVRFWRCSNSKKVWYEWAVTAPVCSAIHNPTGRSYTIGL

[16] = target: T1, Protein arginine N-methyltransferase 5; experiment: Inhibition of PRMT5 (unknown origin)
Lu-99 cell line [17] = experiment: Antiproliferative activity against MTAP null human Lu-99 cell line assessed as inhibition of cell viability measured after 10 days by luminescence based cell titer-glo assay; type: functional; conditions: Lu-99, 240 h
DOHH-2 = experiment: Antiproliferative activity against MTAP null human DOHH-2 cells assessed as inhibition of cell viability measured after 10 days by luminescence based cell titer-glo assay; type: functional; conditions: DOHH-2, 240 h
[18] = Antiproliferative activity against MTAP null human HCC15 cells assessed as inhibition of cell viability measured after 10 days by luminescence based cell titer-glo assay; type: functional; conditions: HCC15, 240 h
[19] = Antiproliferative activity against MTAP null human NCI-H647 cells assessed as inhibition of cell viability measured after 10 days by luminescence based cell titer-glo assay; type: functional; conditions: NCI-H647, 240 h
[20] = Antiproliferative activity against MTAP wild type human KURAMOCHI cells assessed as inhibition of cell viability measured after 10 days by luminescence based cell titer-glo assay; type: functional; conditions: 240 h
BT-20 = experiment: Antiproliferative activity against MTAP wild type human BT-20 cells assessed as inhibition of cell viability measured after 10 days by luminescence based cell titer-glo assay; type: functional; conditions: BT-20, 240 h
MDA-MB-436 = experiment: Antiproliferative activity against MTAP wild type human MDA-MB-436 cells assessed as inhibition of cell viability measured after 10 days by luminescence based cell titer-glo assay; type: functional; conditions: MDA-MB-436, 240 h
HCC95 = experiment: Antiproliferative activity against MTAP wild type human HCC95 cells assessed as inhibition of cell viability measured after 10 days by luminescence based cell titer-glo assay; type: functional; conditions: HCC95, 240 h
[21] = target: T1, Protein arginine N-methyltransferase 5; experiment: Inhibition of PRMT5 in MTAP deleted human Lu-99 cell line assessed as reduction in SDMA level at upto 1000 nM measured after 5 days by Western blot analysis; type: cell-based; conditions: time 5.0 day
[22] = target: T1, Protein arginine N-methyltransferase 5; experiment: Inhibition of PRMT5 in MTAP deleted human Lu-99 cell line assessed as decrease pRb (Ser807/811) level at upto 1000 nM measured after 5 days by Western blot analysis; type: cell-based; conditions: time 5.0 day
[23] = target: T1, Protein arginine N-methyltransferase 5; experiment: Inhibition of PRMT5 in MTAP deleted human Lu-99 cell line assessed as increase in p21 level at upto 1000 nM measured after 5 days by Western blot analysis; type: cell-based; conditions: time 5.0 day
[24] = target: T1, Protein arginine N-methyltransferase 5; experiment: Inhibition of PRMT5 in MTAP deleted human Lu-99 cell line assessed as increase in gammaH2AX level at upto 1000 nM measured after 5 days by Western blot analysis; type: cell-based; conditions: time 5.0 day
Lu-99 cell line [25] = experiment: Antitumor activity against human Lu-99 cell line xenografted in female BALB/c nude mouse model assessed as tumor growth inhibition administered once daily via oral gavage and measured upto 21 days by caliper method; type: functional; conditions: dose 25-200 mg/kg, time <= 21.0 day
Lu-99 cell line [26] = experiment: Antitumor activity against human Lu-99 cell line xenografted in female BALB/c nude mouse model assessed as tumor growth inhibition at 25 mg/kg administered once daily via oral gavage and measured upto 21 days by caliper method relative to control; type: functional; parameters: scale not given: the % may be the effect or the level left; conditions: time <= 21 day
Lu-99 cell line [27] = experiment: Antitumor activity against human Lu-99 cell line xenografted in female BALB/c nude mouse model assessed as tumor growth inhibition at 50 mg/kg administered once daily via oral gavage and measured upto 21 days by caliper method relative to control; type: functional; parameters: scale not given: the % may be the effect or the level left; conditions: time <= 21 day
Lu-99 cell line [28] = experiment: Antitumor activity against human Lu-99 cell line xenografted in female BALB/c nude mouse model assessed as tumor growth inhibition at 100 mg/kg administered once daily via oral gavage and measured upto 21 days by caliper method relative to control; type: functional; parameters: scale not given: the % may be the effect or the level left; conditions: time <= 21 day
Lu-99 cell line [29] = experiment: Antitumor activity against human Lu-99 cell line xenografted in female BALB/c nude mouse model assessed as tumor growth inhibition at 200 mg/kg administered once daily via oral gavage and measured upto 21 days by caliper method relative to control; type: functional; parameters: scale not given: the % may be the effect or the level left; conditions: time <= 21 day
[30] = target: T1, Protein arginine N-methyltransferase 5; experiment: In vivo inhibition of PRMT5 in female BALB/c nude mouse xenografted with human Lu-99 cell line assessed as inhibition of SDMA level administered once daily via oral gavage by Western blot analysis; type: functional, organism-based; conditions: dose 25-200 mg/kg
[31] = target: T1, Protein arginine N-methyltransferase 5; experiment: In vivo inhibition of PRMT5 in female BALB/c nude mouse xenografted with human Lu-99 cell line assessed as inhibition of SDMA level at 25 mg/kg administered once daily via oral gavage by Western blot analysis relative to control; type: functional, organism-based; parameters: scale not given: the % may be the effect or the level left
[32] = target: T1, Protein arginine N-methyltransferase 5; experiment: In vivo inhibition of PRMT5 in female BALB/c nude mouse xenografted with human Lu-99 cell line assessed as inhibition of SDMA level at 50 mg/kg administered once daily via oral gavage by Western blot analysis relative to control; type: functional, organism-based; parameters: scale not given: the % may be the effect or the level left
[33] = target: T1, Protein arginine N-methyltransferase 5; experiment: In vivo inhibition of PRMT5 in female BALB/c nude mouse xenografted with human Lu-99 cell line assessed as inhibition of SDMA level at 100 mg/kg administered once daily via oral gavage by Western blot analysis relative to control; type: functional, organism-based; parameters: scale not given: the % may be the effect or the level left
[34] = target: T1, Protein arginine N-methyltransferase 5; experiment: In vivo inhibition of PRMT5 in female BALB/c nude mouse xenografted with human Lu-99 cell line assessed as inhibition of SDMA level at 200 mg/kg administered once daily via oral gavage by Western blot analysis relative to control; type: functional, organism-based; parameters: scale not given: the % may be the effect or the level left
[35] = Toxicity in female BALB/c nude mouse assessed as drug tolerance at 25 to 200 mg/kg, po administered once daily for 21 days; type: organism-based; conditions: in vivo, 504 h, dose 25-200 mg/kg, time 21 day
[36] = Toxicity in female BALB/c nude mouse assessed as effect on body weight loss at 25 to 200 mg/kg, po administered once daily for 21 days; type: organism-based; conditions: in vivo, 504 h, dose 25-200 mg/kg, time 21 day

Compound: Cc1cc2cc(C(=O)N(Cc3ccc(C(F)(F)F)cn3)C(C)c3ncccn3)ccc2nc1N (centres undefined)
Ratio IC50 [1]: 31

Compound: CN(C(=O)c1ccc2nc(N)c3c(c2c1)COC3)[C@H]1CCCN(c2ccccc2)C1
IC50 (HCT-116 [2]): 6060 nM

Compound: N#Cc1cccc(N2C[C@@H]3C[C@H]2CN3C(=O)c2ccc3nc(N)c4c(c3c2)COC4)c1
IC50 (HCT-116 [2]): 3680 nM

Compound: CN(C(=O)c1ccc2nc(N)c3c(c2c1)COC3)C1CCN(c2ccccc2)CC1
IC50 (HCT-116 [2]): 3890 nM

Compound: Nc1nc2ccc(C(=O)N3C[C@H]4C[C@@H]3CN4c3ccccc3)cc2c2c1COC2
IC50 (HCT-116 [2]): 2450 nM

Compound: CN(C(=O)c1ccc2nc(N)c3c(c2c1)COC3)[C@@H]1CCCN(c2ccccc2)C1
IC50 (HCT-116 [2]): > 10000 nM

Compound: Nc1nc2cnc(C(=O)N3CCOC[C@@H]3c3ccc(C(F)(F)F)cc3)cc2c2c1COC2
Ratio IC50 [1]: 66

The remaining compounds from weak to strong by IC50 (HCT-116 [2]), led by results:

IC50 (HCT-116 [2]): 2000 nM
Compound: CN(C(=O)c1ccc2nc(N)c3c(c2c1)COC3)[C@H]1CCN(c2ccccc2)C1

IC50 (HCT-116 [2]): 641 nM
IC50 (HCT-116 [3]): > 10000 nM
Compound: CN(C(=O)c1ccc2nc(N)c3c(c2c1)COC3)[C@@H]1CCN(c2ccc(S(C)(=O)=O)cc2)C1

IC50 (HCT-116 [2]): 313 nM
IC50 (HCT-116 [3]): 630 nM
Compound: CN(C(=O)c1ccc2nc(N)c3c(c2c1)COC3)[C@@H]1CCN(c2ccc3cnn(C)c3c2)C1

IC50 (HCT-116 [2]): 95 nM
IC50 (HCT-116 [3]): 7820 nM
Compound: CN(C(=O)c1ccc2nc(N)c3c(c2c1)COC3)[C@@H]1CCN(c2ccc(C#N)cc2)C1
Ratio IC50 [1]: 82

IC50 (HCT-116 [2]): 15 nM
IC50 (HCT-116 [3]): 1900 nM
Cmax [4]: 1720 ng/mL
AUC [5]: 6900 ng·h/mL
bioavailability [6]: 105%
Vdss [7]: 1.52 L/kg
Cmax [8]: 1020 ng/mL
AUC [9]: 5610 ng·h/mL
bioavailability [10]: 81%
Vdss [11]: 1.87 L/kg
Cmax [12]: 804 ng/mL
AUC [13]: 6140 ng·h/mL
bioavailability [14]: 82.5%
IC50 [15]: 4.7 nM
IC50 [16]: 68 nM
IC50 (BT-20): > 10000 nM
IC50 (MDA-MB-436): 4870 nM
IC50 (HCC95): 2740 nM
inhibition [21]: Active
inhibition [22]: Active
inhibition [23]: Active
inhibition [24]: Active
Activity [30]: Dose-dependent-effect
Activity [31]: 43%
Activity [32]: 49%
Activity [33]: 68%
Activity [34]: 85%
Compound: CN(C(=O)c1cc2c3c(c(N)nc2cc1F)COC3)[C@@H]1CCN(c2ccc(C#N)cc2)C1
IC50 (Lu-99 cell line [17]): 21.9 nM
IC50 (DOHH-2): 20.9 nM
IC50 [18]: 6.6 nM
IC50 [19]: 118 nM
IC50 [20]: 2960 nM
Activity (Lu-99 cell line [25]): Dose-dependent-effect
Activity (Lu-99 cell line [26]): 71%
Activity (Lu-99 cell line [27]): 76%
Activity (Lu-99 cell line [28]): 94%
Activity (Lu-99 cell line [29]): 102%
Activity [35]: Non-toxic
Activity [36]: Non-toxic
